Results: ChEMBL document CHEMBL5154674, “ARN25068, a versatile starting point towards triple GSK-3β/FYN/DYRK1A inhibitors to tackle tau-related neurological disorders” (Eur J Med Chem, 2022)

Test system: U2OS
Assay: Cytotoxic effect on human U2OS cells transfected with Tau0N4R-TM-tGFP at 25 to 100 uM by fluorescence based microscopy
Format: toxicity, cell-based
Conditions: dose 25-100 µM

For `c1ccc(CNc2nc(Nc3cc(C4CC4)[nH]n3)c3sccc3n2)cc1`, the Activity was “Toxic”.
